{"source": "paper PMC3930563", "about": "“Mycobacterium tuberculosis Exploits Asparagine to Assimilate Nitrogen and Resist Acid Stress during Infection” (PLoS Pathogens, 2014)", "molecular_target": "AnsA (Rv1538c), recombinant AnsA-HIS6 (Mycobacterium tuberculosis, UniProt P9WPX5)", "sequence (P9WPX5 whole entry)": "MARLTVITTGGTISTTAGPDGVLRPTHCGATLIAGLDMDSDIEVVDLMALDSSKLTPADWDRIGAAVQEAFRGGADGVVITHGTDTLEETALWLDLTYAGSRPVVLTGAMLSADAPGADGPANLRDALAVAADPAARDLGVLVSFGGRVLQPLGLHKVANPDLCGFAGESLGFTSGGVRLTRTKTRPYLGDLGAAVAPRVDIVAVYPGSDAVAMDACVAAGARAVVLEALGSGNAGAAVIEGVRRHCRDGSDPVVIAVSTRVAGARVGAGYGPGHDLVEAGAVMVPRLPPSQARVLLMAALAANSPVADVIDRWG", "data": [{"smiles": "NC(=O)C[C@H](N)C(=O)O", "note": "[Asn, asparagine]", "values": [{"measurement": "coupled glutamate dehydrogenase assay, NADPH disappearance at 340 nm", "value": "revealed that AnsA mediates asparagine hydrolysis (Fig. 1E)"}]}]}
